Measurements from PubChem BioAssay AID1996.
≈ marks a conversion by molar mass, not a printed value.

Settings: buffer; pH 7.4; 200.0 µM

Row | SMILES | solubility kinetic
1 | CC(C)C(C)NC(=O)COc1ccc(OCc2ccccc2)cc1 (stereo unspecified) | 1.9 µg/mL (≈ 5.8 µM)
2 | CCC(=O)Nc1cccc(-c2nc3ccc(C)cc3o2)c1 | 1.6 µg/mL (≈ 5.71 µM)
3 | O=C(NC(=S)NCCC1=CCCCC1)c1cccnc1 | 22.2 µg/mL (≈ 76.7 µM)
4 | Cn1c(O)c(/C=C2\C=Nc3ccc(Br)cc32)c(=O)n(C)c1=O | 0.9 µg/mL (≈ 2.48 µM)
5 | COCCN1C2=C(COC(C)(C)C2)C(=S)NC1c1ccccc1 (stereo unspecified) | > 49.9 µg/mL
6 | COc1cc(OC)cc(C(=O)N[C@H](C(=O)Nc2c(C)n(C)n(-c3ccccc3)c2=O)C(C)C)c1 | > 70 µg/mL
7 | O=C(CCl)N1c2ccccc2SCC1c1ccccc1 (stereo unspecified) | 2.7 µg/mL (≈ 8.89 µM)
8 | Cc1cccc(OCCn2c(=O)oc3ccc(C)cc32)c1 | 3.8 µg/mL (≈ 13.4 µM)
9 | CCN1CCN(Cc2cc(OC)c3c(c2)OCO3)CC1 | 33.9 µg/mL (≈ 122 µM)
10 | CC(O)CNc1nc2c(c(=O)n(Cc3ccccc3)c(=O)n2C)n1C (stereo unspecified) | > 51.5 µg/mL
11 | CC(CN1CCN(Cc2ccccc2)CC1)c1ccccc1.O=C(O)C(=O)O (stereo unspecified) | 7.2 µg/mL
12 | c1ccc(-c2csc3ncnc(NCc4ccccn4)c23)cc1 | 40.1 µg/mL (≈ 126 µM)
13 | COc1ccc2c(c1)c(C(=O)C(C)N1CCCCC1)c(C)n2C (stereo unspecified) | < 0.3 µg/mL
14 | CC(Nc1nc(C(F)(F)F)nc2ccccc12)c1cccs1 (stereo unspecified) | 6.5 µg/mL (≈ 20.1 µM)
15 | COc1cc(/C=C(\C#N)C(N)=O)ccc1OCc1c(C)no[n+]1[O-] | 14.6 µg/mL (≈ 44.2 µM)
16 | O=C1CSC(=Nc2ccc(Cl)cc2)N1Cc1cccnc1 | 8.3 µg/mL (≈ 26.1 µM)
17 | O=C(NC1CCCN(Cc2ccccc2F)C1)C1CCC1 (stereo unspecified) | > 43.6 µg/mL
18 | Nc1ccc2c(c1)OC1(CCCCC1)O2 | 19.1 µg/mL (≈ 93.1 µM)
19 | COc1ccc(C(=O)n2cnc3ccccc32)cc1[N+](=O)[O-] | 29.4 µg/mL (≈ 98.9 µM)
20 | COc1ccc(Nc2ncnc3ccc(C)cc23)cc1 | > 39.8 µg/mL
21 | Cc1ccn2cc(-c3ccc(O)c(O)c3)nc2c1.Cl | 17.8 µg/mL
22 | Cc1ccc(C2NCCS2)cc1 (stereo unspecified) | > 26.9 µg/mL
23 | O=C(C(=O)N1CCN(c2ccccc2)CC1)c1c[nH]c2ccccc12 | 2 µg/mL (≈ 6 µM)
24 | CCOC(=O)C1=C(C)NC(=O)NC1c1c(OC)ccc2ccccc12 (stereo unspecified) | 0.7 µg/mL (≈ 2.06 µM)
25 | COc1cccc(NC(=O)CN(C)C(=O)C2=COCCO2)c1 | 43.1 µg/mL (≈ 141 µM)

Row | SMILES | solubility kinetic
26 | COc1ccc2c(C(=O)CN3CCSCC3)c[nH]c2c1 | 36.8 µg/mL (≈ 127 µM)
27 | COCCCNc1nc2nonc2nc1N1CCN(C2CCCC2)CC1 | 45.9 µg/mL (≈ 127 µM)
28 | COc1ccccc1N(CC(=O)Nc1ccc(C)cc1Cl)S(=O)(=O)c1cccs1 | 6.9 µg/mL (≈ 15.3 µM)
29 | CC(=O)N1CCN(C(=O)CSc2ncnc3sc(C)c(C)c23)CC1 | > 54.7 µg/mL
30 | Cc1cc(-c2onc3ccc(Cl)cc23)ccc1O | 16.3 µg/mL (≈ 62.8 µM)
31 | CCOc1c(Cl)cc(CNCc2ccccn2)cc1OC.Cl | 45.2 µg/mL
32 | O=C(O)c1cccc2c1C(=O)N(c1ccccc1)C2 | > 38 µg/mL
33 | Cc1cnc([N+](=O)[O-])n1CCOC(=O)c1cccc(F)c1 | > 44 µg/mL
34 | CCCCCCC1CCC(C(=O)N2CCOCC2)CC1 (stereo unspecified) | 10 µg/mL (≈ 35.5 µM)
35 | CCC/C(O)=C1\C(=O)CC(C)(C)CC1=Nc1ccc(OC)cc1 | 41.6 µg/mL (≈ 132 µM)
36 | O=C1NC(=O)N(CCC2=CCCCC2)C(=O)/C1=C/c1cccs1 | 26.1 µg/mL (≈ 79 µM)
37 | Cc1sc2ncnc(N3CCCC(C)C3)c2c1C.Cl (stereo unspecified) | 11 µg/mL
38 | Cc1ccc(NC(=O)C2CCCN(c3ncccn3)C2)cc1C (stereo unspecified) | 2.1 µg/mL (≈ 6.77 µM)
39 | CC(C(=O)Nc1ccc(F)c(F)c1F)N(C)CCOc1ccccc1 (stereo unspecified) | 13.6 µg/mL (≈ 38.6 µM)
40 | O=S(=O)(NCCc1ccc(Cl)cc1)c1cccs1 | > 45.3 µg/mL
41 | O=C(Nc1ccc(F)cc1)C1COc2ccccc2O1 (stereo unspecified) | 39.8 µg/mL (≈ 146 µM)
42 | CCOc1ccc(OCCCCn2cnc3ccccc3c2=O)cc1 | 0.7 µg/mL (≈ 2.07 µM)
43 | O=C(c1ccc(=O)[nH]c1)N1CCCc2ccccc21 | > 38.1 µg/mL
44 | COCCN1CC(C(=O)NCc2ncccc2C)CCC1=O (stereo unspecified) | > 45.8 µg/mL
45 | CN(C)C(C)(C)/C=C/C(O)(c1ccccc1)c1ccccc1 | 43 µg/mL (≈ 146 µM)
46 | COc1ccc(OC)c(NC(=O)N2CCc3ccccc3C2)c1 | > 46.9 µg/mL
47 | CC(=O)c1c(COC(=O)c2ccccc2Cl)nc2ccccc2[n+]1[O-] | 15.9 µg/mL (≈ 44.6 µM)
48 | CCOC(=O)c1c(N)sc2c1CCN(CCc1ccccc1)C2 | 31.7 µg/mL (≈ 95.9 µM)
49 | Cc1cccc(Nc2nc(N)c([N+](=O)[O-])c(NCc3ccccc3)n2)c1 | 0.7 µg/mL (≈ 2 µM)
50 | CCCC(=O)OCC[N+](C)(C)C.[Cl-] | > 31.5 µg/mL

Row | SMILES | solubility kinetic
51 | Cc1cccc(C)c1NC(=O)CN.Cl | > 32.2 µg/mL
52 | CCOc1ccc2[nH]c3c(NCCO)ncnc3c2c1 | > 40.8 µg/mL
53 | O=C(O)CCC(=NNC(=O)c1cccc(S(=O)(=O)N2CCCCC2)c1)c1ccccc1 | > 66.5 µg/mL
54 | CCOc1ccccc1/C=C/c1nc2ccccc2[nH]c1=O | 1.6 µg/mL (≈ 5.47 µM)
55 | O=C(NC1CCS(=O)(=O)C1)c1ccc(Br)o1 (stereo unspecified) | 32.2 µg/mL (≈ 104 µM)
56 | COC(=O)c1ccc(=O)n(CC(=O)c2ccc(Cl)cc2)c1 | > 45.9 µg/mL
57 | CCOc1cccc(CNc2nnnn2C)c1 | > 35 µg/mL
58 | O=C(/C=C/c1ccc([N+](=O)[O-])cc1)OCC(=O)N1CCCCCC1 | 18.9 µg/mL (≈ 56.9 µM)
59 | CC(C)CCOc1ccc(C2CC(=O)N(C)C2=O)cc1 (stereo unspecified) | 40.3 µg/mL (≈ 146 µM)
60 | COC(=O)c1scc(C)c1NC(=O)c1ccc(Cl)cc1 | 21.3 µg/mL (≈ 68.8 µM)
61 | COc1cccc(NC(=O)c2cc(=O)c3ccccc3o2)c1 | 1.9 µg/mL (≈ 6.43 µM)
62 | O=C(NCC(c1ccco1)N1CCOCC1)c1ccccc1 (stereo unspecified) | > 45.1 µg/mL
63 | COc1ccc(/C=C2/C(=O)ON=C2C)cc1Br | 14 µg/mL (≈ 47.3 µM)
64 | O=C(CN1CCCCC1)Nc1ccccc1C(=O)NC1CC1 | > 45.2 µg/mL
65 | Cc1cc(Cl)n2c(nc3ccccc32)c1C#N | 15.3 µg/mL (≈ 63.3 µM)
66 | O=C(NCCCn1ccnc1)c1ccc(-c2cccc(Cl)c2Cl)o1 | 48.1 µg/mL (≈ 132 µM)
67 | CN(CCOc1ccccc1)CC(O)COc1ccccc1 (stereo unspecified) | 28.5 µg/mL (≈ 94.6 µM)
68 | O=[N+]([O-])c1ccccc1CN1CCN(c2ncccn2)CC1 | 34.8 µg/mL (≈ 116 µM)
69 | CC(C)=C(NC(=O)c1ccccc1)C(N)=O | > 32.7 µg/mL
70 | O=C1Nc2ccc(Cl)cc2C(=O)C1(F)c1ccccc1 (stereo unspecified) | 1.7 µg/mL (≈ 5.87 µM)
71 | CC(=O)c1cccc(NC(=O)c2ccc3c(c2)CCCC3)c1 | 0.8 µg/mL (≈ 2.73 µM)
72 | Cc1ccc2nc(COC(=O)c3ccc(Cl)nc3)cc(=O)n2c1 | 7.3 µg/mL (≈ 22.1 µM)
73 | N#Cc1ccc(C2N=C(c3ccccc3)NO2)cc1 (stereo unspecified) | 15.3 µg/mL (≈ 61.4 µM)
74 | O=C(NCCc1ccc(Cl)cc1)C1(c2ccccc2)CC1 | 35.4 µg/mL (≈ 118 µM)
75 | Cc1ccc(S(=O)(=O)N2CCOCC2)cc1NC(=O)COC(=O)COc1ccccc1[N+](=O)[O-] | 72.2 µg/mL (≈ 146 µM)

Row | SMILES | solubility kinetic
76 | COc1ccccc1/C=C/C(=O)OCC(=O)N1CCCCC1 | > 45.5 µg/mL
77 | O=S(=O)(c1ccc(-c2ccccn2)s1)N1CCC2(CC1)OCCO2 | 1.5 µg/mL (≈ 4.09 µM)
78 | NC(=O)C1CCN(C(=O)c2cccc3ccccc23)CC1 | > 42.4 µg/mL
79 | CCc1noc(C)c1C(=O)Nc1nc2c(C)cc(C)cc2s1 | 3.2 µg/mL (≈ 10.1 µM)
80 | CCOc1ccc(N2CC(C(=O)NC3CCSC3=O)CC2=O)cc1 (stereo unspecified) | 42.6 µg/mL (≈ 122 µM)
81 | CC1=C(C)CC(C(=O)NCc2c(F)cccc2Cl)C(C(=O)O)C1 (stereo unspecified) | > 51 µg/mL
82 | COc1ccc(OCC(=O)Nc2nccs2)cc1 | 39.1 µg/mL (≈ 148 µM)
83 | COc1ccc(OC)c2sc(Cl)nc12 | 18.4 µg/mL (≈ 80.1 µM)
84 | Cc1ccc(-c2cc(C(=O)Nc3cc(C)ccc3O)no2)cc1 | < 0.3 µg/mL
85 | Cc1ccc2c(CN(C)Cc3cccc(Cl)c3)cc(=O)oc2c1C | < 0.7 µg/mL
86 | O=c1[nH]c2ccc(NS(=O)(=O)c3ccc(F)c(Cl)c3)cc2[nH]1 | 7.5 µg/mL (≈ 21.9 µM)
87 | O=C(O)c1ccccc1Nc1cc(Cl)c2nonc2c1[N+](=O)[O-] | 43.3 µg/mL (≈ 129 µM)
88 | Cc1cc(Br)ccc1NC(=O)CNC(=O)CSc1nccn1C | > 59.6 µg/mL
89 | Cc1ccc(NC(=O)CCC(=O)c2cccs2)c(Br)c1 | 8.6 µg/mL (≈ 24.4 µM)
90 | CCc1ccc(OCCOC(=O)Nc2ccccc2)cc1 | < 0.6 µg/mL
91 | Cc1ccc(-c2nc(CNC(=O)c3ccco3)cs2)cc1 | 42 µg/mL (≈ 141 µM)
92 | C=CCNC(=O)COc1c(C)ccc(C)c1C | > 35 µg/mL
93 | O=C(NC1CCCC1)c1cc(-c2ccccc2)nc2ccccc12 | 1.4 µg/mL (≈ 4.42 µM)
94 | COc1ccc(C(C#N)=C2C=CC(=NO)C=C2)cc1 | 4.2 µg/mL (≈ 16.6 µM)
95 | CCOC(=O)C1CCN(CC(=O)N2CCc3ccccc32)CC1 | > 47.5 µg/mL
96 | Cc1ccc(S(=O)(=O)NCC2(c3ccccc3)CCOCC2)cc1 | < 0.7 µg/mL
97 | CCN(C(=O)COc1ccccc1)C1CCCCC1 | 37.4 µg/mL (≈ 143 µM)
98 | O=C(/C=C/c1ccc([N+](=O)[O-])cc1)/C=C/c1ccco1 | 3.1 µg/mL (≈ 11.5 µM)
99 | Cl.O=C(/C=C/c1ccco1)OCC1CCCN2CCCCC12 (stereo unspecified) | > 48.9 µg/mL
100 | Cc1nc(N)c(C#N)c(-c2cccnc2)c1-c1ccccc1 | 0.6 µg/mL (≈ 2.1 µM)

Row | SMILES | solubility kinetic
101 | COc1cc2c(C(=O)O)c(C)n(C)c2c2ccccc12 | 7.4 µg/mL (≈ 27.5 µM)
102 | CCN(C1CCS(=O)(=O)C1)S(=O)(=O)c1ccc2ccccc2c1 (stereo unspecified) | 15.9 µg/mL (≈ 45 µM)
103 | O=C(Cc1ccc(F)cc1)Nc1nccs1 | 34.4 µg/mL (≈ 146 µM)
104 | CC(C)[C@H](NS(=O)(=O)c1ccccc1)C(=O)OCC(=O)NC(=O)NC1CCCCC1 | > 65.9 µg/mL
105 | Cc1ccc(OCCCC(=O)NC2CCCCC2)cc1 | 15.7 µg/mL (≈ 57 µM)
106 | O=C(Nc1ccccn1)c1ccc(-c2ccccc2)cc1 | 0.9 µg/mL (≈ 3.28 µM)
107 | O=C(NCCc1ccc(Cl)cc1)c1cc(=O)[nH]c2ccccc12 | 2.4 µg/mL (≈ 7.34 µM)
108 | O=C(COC(=O)c1c[nH]c2ccccc12)NC1CCCCC1 | 13.4 µg/mL (≈ 44.6 µM)
109 | Cc1cc(N)c2ccccc2n1 | > 23.7 µg/mL
110 | COc1ccc(CNC(=O)CCSCc2cccc(F)c2)cc1 | > 50 µg/mL
111 | Cn1nc(C(=O)NC2CCCC2)c2ccccc2c1=O | > 40.7 µg/mL
112 | Fc1cccc(CNc2ncnc3cc(Cl)ccc23)c1F | 3.8 µg/mL (≈ 12.4 µM)
113 | CC(=O)NC1CCN(CC(=O)Nc2cccc([N+](=O)[O-])c2)CC1 | 43.7 µg/mL (≈ 136 µM)
114 | CCn1c(CCCNC(=O)c2ccco2)nc2ccccc21 | 42.1 µg/mL (≈ 142 µM)
115 | COc1ccc(CC2SC(=Nc3ccc(F)cc3)NC2=O)cc1 (stereo unspecified) | 2.3 µg/mL (≈ 6.96 µM)
116 | Cc1ccc2nc3c(nc2c1C)C(O)=C3O | 24.7 µg/mL (≈ 115 µM)
117 | COc1ccc(CNc2ncnc3cc(OC)c(OC)cc23)cc1OC | > 53.3 µg/mL
118 | N#Cc1ccccc1NC(=O)CSc1ccc([N+](=O)[O-])cn1 | 0.7 µg/mL (≈ 2.23 µM)
119 | Cc1ccccc1-c1nc2sc(C)c(C)c2c(=O)o1 | < 0.6 µg/mL
120 | CCOC(=O)c1cnc2cc(F)c(F)cc2c1N1CCN(C)CC1 | 30.7 µg/mL (≈ 91.5 µM)
121 | COc1cccc(OC)c1C1=NC(C)(C)CO1 | > 35.3 µg/mL
